# Test results reported in publication PMC6150201, “Synthesis and Antitumor Activity of Novel Arylpiperazine Derivatives Containing the Saccharin Moiety” (Molecules : A Journal of Synthetic Chemistry and Natural …, 2017).
# Like-named read-outs stand apart in the source and are kept apart here.
# What was measured:
# PC-3 cells [1] = assay: In vitro cytotoxicity, CCK-8 assay, PC-3 cells; assay type: cell-based, human; conditions: for IC50: PC-3, androgen-insensitive human prostate cancer cell line, CCK-8, 24 h exposure, mean ± SD of three experiments; for selective activity for PC-3 cells over other cancer cells: from IC50 comparison
# Method: (§1) The synthesized target compounds 4–21 were evaluated for their in vitro cytotoxic activities against three human prostate cancer cell lines (PC-3, LNCaP, and DU145) and compared with their effects on the human prostate epithelial cell line WPMY-1 by CCK-8 assay.
# (§2) PC-3 and WPMY-1 cells were cultured in Dulbecco’s modified Eagle’s medium (DMEM, Invitrogen, Carlsbad, CA, USA) supplemented with 10% fetal bovine serum (FBS, Hyclone, Logan, UT, USA), 100 U/mL penicillin, and 0.1 mg/mL streptomycin (Invitrogen). DU145 cells were cultured in RPMI1640 media supplemented with 10% fetal bovine serum (FBS, Hyclone), 100 U/mL penicillin, and 0.1 mg/mL streptomycin (Invitrogen). LNCaP cells were cultured in F12 media supplemented with 10% fetal bovine serum (FBS, Hyclone), 100 U/mL penicillin, and 0.1 mg/mL streptomycin (Invitrogen). The cells were incubated at 37 °C in a humidified atmosphere with 5% CO2.
# (§3) Cell proliferation was measured with the Cell Counting Kit-8 (CCK-8) assay kit (Dojindo Corp., Kumamoto, Japan). Cells were harvested during their logarithmic growth phase, seeded in 96-well plates at a density of 1 × 10^5 cells/mL, and cultured at 37 °C in a humidified incubator (5% CO2) for 24 h, followed by exposure to various concentrations of compounds tested for 24 h. Subsequently, 10 μL of CCK-8 (Dojindo) was added to each well, and the cells were then incubated for an additional 1 h at 37 °C to convert WST-8 into formazan. Cell growth inhibition was determined by measuring the absorbance (Abs) at λ = 450 nm using a microplate reader. Three independent experiments were performed. Cell growth inhibition was calculated according to the following equation: Growth inhibition = (1 − OD of treated cells / OD of control cells) × 100%
# (§4) The half maximal inhibitory concentrations (IC50) were obtained from a linear regression analysis of the concentration-response curves plotted for each tested compound.
# LNCaP cells [2] = assay: In vitro cytotoxicity, CCK-8 assay, LNCaP cells; assay type: cell-based, human; conditions: for IC50: LNCaP, androgen-sensitive human prostate cancer cell line, CCK-8, 24 h exposure, mean ± SD of three experiments; for selective activity for LNCaP cells over other cancer cells: from IC50 comparison
# Method: as §1, §2, §3, §4
# DU145 cells [3] = assay: In vitro cytotoxicity, CCK-8 assay, DU145 cells; assay type: cell-based, human; conditions: for IC50: androgen-insensitive human prostate cancer cell line, CCK-8, 24 h exposure, mean ± SD of three experiments; for selective activity for DU145 cells over other cancer cells: in words, from IC50 comparison
# Method: as §1, §2, §3, §4
# WPMY-1 cells = assay: In vitro cytotoxicity, CCK-8 assay, WPMY-1 prostate epithelial cells; assay type: cell-based, human; conditions: for IC50: WPMY-1, human prostate epithelial cell line, CCK-8, 24 h exposure, mean ± SD of three experiments
# Method: as §1, §2, §3, §4
# PC-3 cells [4] = tested on: PC-3 cells; set-up: method as in PMID 24910245; conditions: reference compound, SD not given; cited from earlier work
# LNCaP cells [5] = tested on: LNCaP cells; set-up: method as in PMID 24910245; conditions: reference compound, SD not given; cited from earlier work
# DU145 cells [6] = tested on: DU145 cells; set-up: method as in PMID 24910245; conditions: reference compound, SD not given; cited from earlier work
melting point [°C],Compound,IC50 (PC-3 cells [1]) [µM],IC50 (LNCaP cells [2]) [µM],"IC50 (DU145 cells [3]; Homo sapiens, DU-145, 24 h) [µM]",IC50 (DU145 cells [3]) [µM],selective activity for DU145 cells over other cancer cells (DU145 cells [3]),IC50 (WPMY-1 cells) [µM],selective activity for PC-3 cells over other cancer cells (PC-3 cells [1]; in words),cytotoxic effects on human epithelial prostate normal cells WPMY-1 (in words) (WPMY-1 cells),selective activity for LNCaP cells over other cancer cells (LNCaP cells [2]; in words),cytotoxic activity for PC-3 cells (in words) (PC-3 cells [1]; in words),cytotoxic activity for LNCaP cells (in words) (LNCaP cells [2]; in words),IC50 (PC-3 cells [4]) [µM],IC50 (LNCaP cells [5]) [µM],IC50 (DU145 cells [6]) [µM]
147 to 148,"O=C1c2ccccc2S(=O)(=O)N1Cc1ccc(CCN2CCN(c3ccccc3)CC2)cc1 [Compound 4, Saccharin N-(1-(4-(methyl)phenethyl)-4-phenylpiperazine)]",> 50,> 50,< 2,1.28 ± 0.04,excellent selective activity,> 50,,,,,,,,
149 to 150,"O=C1c2ccccc2S(=O)(=O)N1Cc1ccc(CCN2CCN(c3ccccn3)CC2)cc1 [Compound 5, Saccharin N-(1-(4-(methyl)phenethyl)-4-(pyridin-2-yl)piperazine)]",> 50,> 50,3.57 ± 0.08,,excellent selective activity,> 50,,,,,,,,
153 to 154,"O=C1c2ccccc2S(=O)(=O)N1Cc1ccc(CCN2CCN(c3ncccn3)CC2)cc1 [Compound 6, Saccharin N-(2-(4-(4-(methyl)phenethyl)piperazin-1-yl)pyrimidine)]",4.84 ± 0.17,> 50,> 50,,,48.3 ± 0.56,excellent selective activity,,,,,,,
126 to 127,"Cc1cccc(N2CCN(CCc3ccc(CN4C(=O)c5ccccc5S4(=O)=O)cc3)CC2)c1 [Compound 7, Saccharin N-(1-(4-(methyl)phenethyl)-4-m-tolylpiperazine)]",> 50,> 50,3.65 ± 0.1,,excellent selective activity,> 50,,,,,,,,
130 to 131,"Cc1ccc(N2CCN(CCc3ccc(CN4C(=O)c5ccccc5S4(=O)=O)cc3)CC2)cc1 [Compound 8, Saccharin N-(1-(4-(methyl)phenethyl)-4-p-tolylpiperazine)]",> 50,> 50,> 50,,,,,,,,,,,
134 to 135,"COc1cccc(N2CCN(CCc3ccc(CN4C(=O)c5ccccc5S4(=O)=O)cc3)CC2)c1 [Compound 9, Saccharin N-(1-(4-(methyl)phenethyl)-4-(3-methoxyphenyl)piperazine)]",5.43 ± 0.18,> 50,> 50,,,> 50,excellent selective activity,,,,,,,
149 to 150,"COc1ccc(N2CCN(CCc3ccc(CN4C(=O)c5ccccc5S4(=O)=O)cc3)CC2)cc1 [Compound 10, Saccharin N-(1-(4-(methyl)phenethyl)-4-(4-methoxyphenyl)piperazine)]",4.38 ± 0.13,> 50,2.28 ± 0.05,,,> 50,,,,,,,,
137 to 138,"O=C1c2ccccc2S(=O)(=O)N1Cc1ccc(CCN2CCN(c3ccccc3F)CC2)cc1 [Compound 11, Saccharin N-(1-(4-(methyl)phenethyl)-4-(2-fluorophenyl)piperazine)]",> 50,47.5 ± 2.17,> 50,,,> 50,,,,,,,,
152 to 153,"O=C1c2ccccc2S(=O)(=O)N1Cc1ccc(CCN2CCN(c3ccc(F)cc3)CC2)cc1 [Compound 12, Saccharin N-(1-(4-(methyl)phenethyl)-4-(4-fluorophenyl)piperazine)]",> 50,> 50,< 2,1.14 ± 0.1,excellent selective activity,> 50,,weak cytotoxic effects,,,,,,
113 to 114,"O=C1c2ccccc2S(=O)(=O)N1Cc1ccc(CCN2CCN(c3ccc(F)cc3F)CC2)cc1 [Compound 13, Saccharin N-(1-(4-(methyl)phenethyl)-4-(2,4-difluorophenyl)piperazine)]",> 50,5.03 ± 0.13,> 50,,,> 50,,,excellent selective activity,,,,,
135 to 136,"O=C1c2ccccc2S(=O)(=O)N1Cc1ccc(CCN2CCN(c3ccccc3Cl)CC2)cc1 [Compound 14, Saccharin N-(1-(4-(methyl)phenethyl)-4-(2-chlorophenyl)piperazine)]",14.6 ± 1.12,> 50,3.39 ± 0.11,,excellent selective activity,,,,,,,,,
143 to 144,"O=C1c2ccccc2S(=O)(=O)N1Cc1ccc(CCN2CCN(c3cccc(Cl)c3)CC2)cc1 [Compound 15, Saccharin N-(1-(4-(methyl)phenethyl)-4-(3-chlorophenyl)piperazine)]",2.74 ± 0.11,3.43 ± 0.16,> 50,,,> 50,,,,,,,,
158 to 159,O=C1c2ccccc2S(=O)(=O)N1Cc1ccc(CCN2CCN(c3ccc(Cl)cc3)CC2)cc1 [Compound 16],> 50,> 50,> 50,,,,,,,weak cytotoxic activity,weak cytotoxic activity,,,
178 to 179,"O=C1c2ccccc2S(=O)(=O)N1Cc1ccc(CCN2CCN(c3cccc(Cl)c3Cl)CC2)cc1 [Compound 17, Saccharin N-(1-(4-(methyl)phenethyl)-4-(2,3-dichlorophenyl)piperazine)]",> 50,4.08 ± 0.15,> 50,,,> 50,,weak cytotoxic effects,excellent selective activity,,,,,
105 to 106,"O=C1c2ccccc2S(=O)(=O)N1Cc1ccc(CCN2CCN(c3ccc(Br)cc3)CC2)cc1 [Compound 18, Saccharin N-(1-(4-(methyl)phenethyl)-4-(4-bromophenyl)piperazine)]",2.25 ± 0.07,> 50,9.05 ± 0.23,,,> 50,,,,,,,,
146 to 147,"N#Cc1ccccc1N1CCN(CCc2ccc(CN3C(=O)c4ccccc4S3(=O)=O)cc2)CC1 [Compound 19, Saccharin N-(2-(4-(4-(methyl)phenethyl)piperazin-1-yl)benzonitrile)]",> 50,5.14 ± 0.16,> 50,,,39.15 ± 0.17,,,excellent selective activity,,,,,
179 to 180,"N#Cc1ccc(N2CCN(CCc3ccc(CN4C(=O)c5ccccc5S4(=O)=O)cc3)CC2)cc1 [Compound 20, Saccharin N-(4-(4-(4-(methyl)phenethyl)piperazin-1-yl)benzonitrile)]",2.66 ± 0.04,3.43 ± 0.1,> 50,,,46.3 ± 0.51,,,,,,,,
108 to 109,"O=C1c2ccccc2S(=O)(=O)N1Cc1ccc(CCN2CCN(c3ccc(C(F)(F)F)cc3)CC2)cc1 [Compound 21, Saccharin N-(1-(4-(methyl)phenethyl)-4-(4-(trifluoromethyl)phenyl)piperazine)]",3.73 ± 0.08,> 50,> 50,,,,excellent selective activity,,,,,,,
,CC(C)(C)NC(=O)[C@H]1CC[C@H]2[C@@H]3CC[C@H]4NC(=O)C=C[C@]4(C)[C@H]3CC[C@]12C [Finasteride],,,,,,,,,,,,17.8,14.5,13.5
,"COc1ccccc1N1CCN(CC(O)COc2cccc3ccccc23)CC1 (centres unmarked) [Naftopidil, reference compound]",42.1 ± 0.79,22.4 ± 0.61,34.58 ± 0.31,,,> 50,,,,,,,,
